These results are taken from US9144594B2, “Cathepsin L mediated diseases and associated methods and products” (University of Miami, priority 2005, dated 2015).

In one assay the test system is mice. The assay can be described thus: Protein in urine after in vivo gene delivery of dynamin mutants into healthy mice (Bradford). On the set-up: species or system mouse. How it is done: Next, the level of urinary protein loss following gene delivery of dynamin mutants was examined (Table 2). […] The expression of K44A was associated with severe proteinuria (1.18 mg/ml) at peak gene expression time of 10 hours post injection. The reduction in gene expression was paralleled by a reduction in proteinuria (0.77 mg/ml). Gene transfer of dynR725A caused an increase in proteinuria (0.58 mg/ml). Although this was not a significant increase, it is probable that it is a consequence of the partial podocyte FP effacement seen after gene transfer of dynR725A, and due to increase in the stress fibers formation observed in cultured podocytes.
To explore whether functional dynamin is required for the maintenance of FP morphology in healthy kidneys, it was examined whether expression of dominant negative dynK44A disrupts podocyte function. […] In contrast, podocin driven expression of dynK44A, the dynamin mutant that cannot bind GTP, caused FP effacement (FIG. 21B) and proteinuria (1.1±0.26 mg/ml) at the peak of gene expression […] after gene delivery (FIGS. 21D and 25C). […] In other words, tight regulation of the life-time of the GTP-bound form of dynamin appears to be required for normal FP morphology and ultrafiltration.
CatL plasmids encoding short and long CatL (Goulet et al., Biol Chem 387, 1285-1293 (2004)), Dyn1 plasmids (pcDNA-driven) or p2.5 Podocin-driven (Moeller et al., Genesis 35, 39-42 (2003)) were introduced into mice (n>10, each construct) using the TransIT in vivo gene delivery system according to the manufacturer's instruction (Mirus Bio Corporation, Madison, Wis.). 10 and 24 h after gene delivery, proteinuria was assessed by Multistix 8 SG strips (Bayer Corporation, Elkhart, Ind.), and Bradford protein assay (Sigma, Saint Louis, Mo.). From the same urines the protein creatinine ratio was determined with Albuwell M and Creatinine Companion protein creatinine ELISA kits (Exocell Inc., Philadelphia, Pa.).

Assay [1] deals with LPS induced mouse proteinuria model. The assay can be described thus: LPS induced mouse proteinuria model, protein in urine (prevention and reversal by dynamin gene delivery). The format is in vivo. As for the experimental part: Next, it was examined whether gene transfer of dynR725A and dynL356Q, G358V was able to protect from LPS induced changes of podocyte FP and thus proteinuria (FIGS. 6A-B); (Table 2B). […] Whereas the application of wildtype dynamin was unable to protect from LPS induced podocyte FP effacement (data not shown) and proteinuria (0.63 mg/ml after 24 hours, p<0.05 and 1.18 mg/ml after 48 hours, p<0.04); table 2B, the co-administration of R725A together with LPS completely abolished the development of proteinuria after 24 hours (0.20 mg/ml). Podocyte FPs remained normal at this timepoint (FIG. 6B). The decline of R725A expression in podocytes was then associated with the development of proteinuria (1.25 mg/ml, 48 h). At this time point, there was noticeable podocyte FP effacement. The application of the cathepsin L resistant dynamin mutant L356Q, G358V together with LPS conferred a partial protection from proteinuria (0.47 mg/ml, P<0.05). This protection was associated with normal appearing podocyte FP (FIG. 6C). Although this protection was not as strong as the one provided by dynR725A, it was prolonged and was still present even after the second dose of LPS ([…], P<0.04). This observation argues that lower expression levels of dynL356Q, G358V are required to protect from LPS induced FP effacement but the presence of dynR725A has the most powerful protection.
Another set of experiments was carried out to study whether dynR725A and dynL356Q, G358V are also useful once there is already established podocyte damage and proteinuria (reversal experiments), (FIGS. 6C, D); (Table 2C). First LPS was injected in mice at 0 and 24 hours and the course of urinary protein loss was documented. On the peak phase of proteinuria at 48 hours after the first LPS injection, either delivery solution (control), dynR725A or dynL356Q, G358V dynamin mutants were transferred and the morphology of podocyte FP was analyzed and the degree of proteinuria was determined 10 hours later when there was strong expression of the transferred gene in podocytes. […] A dramatic reformation of podocyte FPs was also observed (FIG. 6C). The same observation was true for L356Q, G358V (FIG. 6D) which was able to reduce proteinuria from 1.20 mg/ml to 0.71 mg/ml). From the in vitro data it was determined that R725A starts to self assemble into higher order structures in the LPS setting which render dynamin assembly domain protected from cathepsin L cleavage. […] In addition, dominant activating dynR725A proves useful because despite causing podocyte damage in wildtype mice, it can resist cathepsin L cleavage by self assembly in the LPS setting and have strong activity by impairment in its GTP hydrolysis.
If dynamin is a target of CatL, then dynL356Q and dynR725A, which are resistant to CatL cleavage, might protect kidneys from LPS. In control mice, two injections of LPS led to FP effacement (FIG. 21C) and a large increase in proteinuria (FIG. 21E, Con).
Next it was examined whether dynL356Q and dynR725A can reverse already established proteinuria. LPS was injected into mice at 0 and 24 hours. At the peak of proteinuria at 48 hours, mice were injected with dynWT, dynL356Q, or dynR725A, and the degree of proteinuria was analyzed 12 hours post injection. […] The rescue could be achieved with both podocin and CMV-driven protein expression.
All animal studies were approved by the MGH Subcommittee for Research Animal Care. C57BL6 mice were obtained from Jackson Laboratory (Bar Harbor, Me.). CatL−/− mice are in a pure C57BL6 background (Nakagawa et al., Science 280, 450-453 (1998)). LPS induced mouse proteinuria model was utilized as previously described (Reiser et al., J Clin Invest 113, 1390-1397 (2004)). Rat PAN nephrosis model was induced by a single intravenous injection of PAN (180 mg/kg body wt; Sigma-Aldrich, St. Louis, Mo.) (Kim et al., Am J Physiol Renal Physiol 286, F922-935 (2004)). […]

Setting [2] is: Table 2A, gene delivery into mice, t = 0.

For “dynWT: wild type dynamin overexpressed by adenovirus or delivered as dynamin 1 cDNA”, the “Protein in the urine” value was found to be 0.27 ± 0.06 mg/mL in the assay with mice (setting [2]); 0.37 ± 0.08 mg/mL with mice (Table 2A, gene delivery into mice, t = 10 h); 0.42 ± 0.12 mg/mL in the assay with mice (Table 2A, gene delivery into mice, t = 24 h); 0.28 ± 0.07 mg/mL in assay [1] (Table 2B Prevention, 2xLPS, t = 0); 0.27 ± 0.07 mg/mL in assay [1] (Table 2B Prevention, 2xLPS, t = 10 h); 0.63 ± 0.12 mg/mL in assay [1] (Table 2B Prevention, 2xLPS, t = 24 h, listed as Dyn WT). In addition, the “Protein in the urine” value amounted to 0.63 mg/mL in assay [1] (Table 2B Prevention, 2xLPS, t = 24 h, listed as wildtype dynamin); 1.18 ± 0.23 mg/mL in assay [1] (Table 2B Prevention, 2xLPS, t = 48 h, listed as Dyn WT); 1.18 mg/mL in assay [1] (Table 2B Prevention, 2xLPS, t = 48 h, listed as wildtype dynamin); 0.30 ± 0.10 mg/mL in assay [1] (Table 2C Reversal, LPS at 0 and 24 h, t = 0); 1.17 ± 0.18 mg/mL in assay [1] (Table 2C Reversal, t = 48 h, at gene transfer, listed as Dyn WT); 1.26 mg/mL in assay [1] (Table 2C Reversal, t = 48 h, at gene transfer, listed as wildtype dynamin). Further, the “Protein in the urine” value in assay [1] (Table 2C Reversal, t = 58 h, 10 hours after gene transfer, listed as Dyn WT) turned out to be 1.10 ± 0.17 mg/mL; in assay [1] (Table 2C Reversal, t = 58 h, 10 hours after gene transfer, listed as wildtype dynamin), 1.32 mg/mL. Moreover, in the assay on mice (healthy mice), the “proteinuria after gene delivery, in words” value is on record as “did not lead to increase of the protein in urine”. The “protection from LPS-induced proteinuria, in words” value in assay [1] (gene delivery immediately before LPS injection) is recorded as “did not protect against these changes”. For the same molecule, the “reversal of established proteinuria, in words” value in assay [1] (injected at 48 hours, analyzed 12 hours post injection) is listed as “did not reduce proteinuria”.

B1: dynK44A: dominant-negative dynamin mutant that cannot bind GTP (protein, UniProt Q05193 1-864, looked up, variant K44A)
Dynamin-1: MGNRGMEDLIPLVNRLQDAFSAIGQNADLDLPQIAVVGGQSAGASSVLENFVGRDFLPRGSGIVTRRPLVLQLVNATTEYAEFLHCKGKKFTDFEEVRLEIEAETDRVTGTNKGISPVPINLRVYSPHVLNLTLVDLPGMTKVPVGDQPPDIEFQIRDMLMQFVTKENCLILAVSPANSDLANSDALKVAKEVDPQGQRTIGVITKLDLMDEGTDARDVLENKLLPLRRGYIGVVNRSQKDIDGKKDITAALAAERKFFLSHPSYRHLADRMGTPYLQKVLNQQLTNHIRDTLPGLRNKLQSQLLSIEKEVEEYKNFRPDDPARKTKALLQMVQQFAVDFEKRIEGSGDQIDTYELSGGARINRIFHERFPFELVKMEFDEKELRREISYAIKNIHGIRTGLFTPDMAFETIVKKQVKKIREPCLKCVDMVISELISTVRQCTKKLQQYPRLREEMERIVTTHIREREGRTKEQVMLLIDIELAYMNTNHEDFIGFANAQQRSNQMNKKKTSGNQDEILVIRKGWLTINNIGIMKGGSKEYWFVLTAENLSWYKDDEEKEKKYMLSVDNLKLRDVEKGFMSSKHIFALFNTEQRNVYKDYRQLELACETQEEVDSWKASFLRAGVYPERVGDKEKASETEENGSDSFMHSMDPQLERQVETIRNLVDSYMAIVNKTVRDLMPKTIMHLMINNTKEFIFSELLANLYSCGDQNTLMEESAEQAQRRDEMLRMYHALKEALSIIGDINTTTVSTPMPPPVDDSWLQVQSVPAGRRSPTSSPTPQRRAPAVPPARPGSRGPAPGPPPAGSALGGAPPVPSRPGASPDPFGPPPQVPSRPNRAPPGVPSRSGQASPSRPESPRPPFDL
Turning to B1, the “Protein in the urine” value with mice (setting [2]) amounted to 0.23 ± 0.11 mg/mL; in the assay on mice (Table 2A, gene delivery into mice, t = 10 h, listed as Dyn K44A) it was 1.18 ± 0.22 mg/mL; in the assay on mice (Table 2A, gene delivery into mice, t = 10 h, listed as K44A), 1.18 mg/mL; in the assay on mice (Table 2A, gene delivery into mice, t = 24 h, listed as Dyn K44A), 0.77 ± 0.11 mg/mL; in the assay with mice (Table 2A, gene delivery into mice, t = 24 h, listed as K44A), 0.77 mg/mL; in the assay with mice (Table 5 Basic Phenotype, podocin-driven vectors, t = 14 h), 1.1 ± 0.26 mg/mL.
